Test system: RAW 264.7 cells
Assay: Quantitative cell-permeability of FITC-labeled aMTD- or rPeptide-fused CRA recombinant proteins (flow cytometry)
Type: cell-based
In short: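 RAW 264.7 cells were exposed to 10 μM FITC-labeled recombinant proteins, consisting of a non-functional cargo fused to aMTD or rPeptide sequences, for 1 hour at 37° C. Cells were washed three times in cold PBS and treated with 0.25% tripsin/EDTA for 20 minutes at 37° C. to strip surface-bound protein, then uptake was measured by flow cytometry.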

[1] = cell-permeability of aMTD-fused CRA recombinant protein relative to negative control (A: rP38)
[2] = cell-permeability of aMTD-fused CRA recombinant protein relative to reference CPP (B: MTM12)
[3] = cell-permeability of aMTD-fused CRA recombinant protein relative to reference CPP (C: MTD85)
[4] = cell-permeability relative to negative control rP38 (A type), aMTD-fused CRA recombinant protein, 10 μM FITC-labeled, 1 hour, 37° C., RAW 264.7 cells
[5] = cell-permeability relative to reference CPP MTD85 (C type), aMTD-fused CRA recombinant protein, 10 μM FITC-labeled, 1 hour, 37° C., RAW 264.7 cells
[6] = cell-permeability relative to reference CPP MTM12 (B type), aMTD-fused CRA recombinant protein, 10 μM FITC-labeled, 1 hour, 37° C., RAW 264.7 cells

Substance	Relative Ratio (Fold) A [1]	Relative Ratio (Fold) B [2]	Relative Ratio (Fold) C [3]	Relative Ratio (Fold) A [4]	Relative Ratio (Fold) C [5]	Relative Ratio (Fold) B [6]
829 (AALALVAPVIVP; Amino acid Sequence of aMTD829) [compound 829]	44.8 Fold	30.0 Fold	15.2 Fold			
830 (IALVAAPVALVP; Amino acid Sequence of aMTD830) [compound 830]				5.3 Fold	1.8 Fold	3.5 Fold
831 (IIVAVAPAAIVP; Amino acid Sequence of aMTD831) [compound 831]	46.3 Fold	31.0 Fold	15.7 Fold			
832 (AVAAIVPVIVAP; Amino acid Sequence of aMTD832) [compound 832]				4.1 Fold	1.4 Fold	2.7 Fold
843 (AVLVLVAPAAAP; Amino acid Sequence of aMTD843) [compound 843]	26.4 Fold	17.7 Fold	8.9 Fold			
844 (VVALLAPLIAAP; Amino acid Sequence of aMTD844) [compound 844]	11.2 Fold	7.5 Fold	3.8 Fold			
845 (AAVVIAPLLAVP; Amino acid Sequence of aMTD845) [compound 845]	35.8 Fold	24.0 Fold	12.1 Fold			
846 (IAVAVAAPLLVP; Amino acid Sequence of aMTD846) [compound 846]	11.7 Fold	6.8 Fold	4.0 Fold			
847 (LVAIVVLPAVAP; Amino acid Sequence of aMTD847) [compound 847]	50.2 Fold	33.4 Fold	16.9 Fold			
848 (AVAIVVLPAVAP; Amino acid Sequence of aMTD848) [compound 848]	10.0 Fold	6.7 Fold	3.4 Fold			
849 (AVILLAPLIAAP; Amino acid Sequence of aMTD849) [compound 849]	8.3 Fold	4.8 Fold	2.9 Fold			
850 (LVIALAAPVALP; Amino acid Sequence of aMTD850) [compound 850]	8.8 Fold	5.9 Fold	3.0 Fold			
851 (VLAVVLPAVALP; Amino acid Sequence of aMTD851) [compound 851]	96.6 Fold	64.7 Fold	32.7 Fold			
852 (VLAVAAPAVLLP; Amino acid Sequence of aMTD852) [compound 852]	84.6 Fold	56.6 Fold	28.6 Fold			
863 (AAVVLLPIIAAP; Amino acid Sequence of aMTD863) [compound 863]	13.8 Fold	9.3 Fold	4.7 Fold			
865 (AVLVIAVPAIAP; Amino acid Sequence of aMTD865) [compound 865]	11.3 Fold	7.5 Fold	3.8 Fold			
867 (ALLVVIAPLAAP; Amino acid Sequence of aMTD867) [compound 867]	13.2 Fold	8.8 Fold	4.4 Fold			
